By solubility is commonly meant how much of the substance goes into solution per volume.

Consider two molecules from patent publication US9981912B2, “Cocrystal of lorcaserin, preparation methods, pharmaceutical compositions and uses thereof” (priority 2014, dated 2018).

Counter-ions that a name gives are not always drawn. Some results are limits rather than exact numbers.

Series [1] is described as follows: Solubility in pure water at 25° C. (Test Example 1).
For series [2] the following is noted: disclosed in WO2006/069363A2; cited from earlier work.
A short description of series [3]: Storage stability at 25° C., 60% RH for 6 months. It counts as physicochemical.

In turn, `C[C@H]1CNCCc2ccc(Cl)cc21` [lorcaserin hydrochloride hemihydrate, (R)-8-chloro-1-methyl-2,3,4,5-tetrahydro-1H-3-benzazepine] gave a solubility in series [1] (in water, 25° C., listed as Lorcaserin hydrochloride hemihydrate (the known)) of over 200 mg/mL. The molecule further returned a solubility in series [1] (pure water, 25 °C, water, thermodynamic from solid) of over 200 mg/mL. In series [2], the hygroscopicity entry is on record as “poor hygroscopicity”; the “stability among crystalline Forms I, II and III” value is on record as “the most stable form”.
“cocrystal of lorcaserin hydrochloride and benzoic acid [the cocrystal]”: the “purity and crystalline form after storage” value in series [3] was “unchanged”.
